In this test the target is T1, hKv1.7 (Homo sapiens, UniProt Q96RP8).
T1 construct: expressed in transfected cells; host or cells: CHO cells (transient transfection)
The test is described as follows: Whole cell patch clamp inhibition of hKv1.7 current in transiently transfected CHO cells (Example 5). The test is classed as cell-based. The settings on record: hKv1.7, up to 3000 μM. How it is done:
Chemicals used in solution preparation were purchased from Sigma-Aldrich (St. Louis, Mo.), unless otherwise noted, and were of ACS reagent grade purity or higher. Stock solutions of each test article (100.104 mM and 1.00 mM 3,4-DAP phosphate and 100.023 mM and 336.335 mM N-(4-aminopyridin-3-yl) acetamide HCl) were prepared in sterile water, stored refrigerated and used within one day. […] All test article solutions contained 3% sterile water. The test articles were prepared in sufficient volume to run the assay (typically 50 mL).
CHO cells, transiently transfected with hKv1.7, were cryopreserved in 90% FBS and 10% DMSO. Frozen vials of cells were thawed rapidly in a 37° C. water bath. Cells were transferred to a 15 mL conical tube, 10 mL of growth media (Ham's/F12-PS/10% FBS) was added, the suspension was gently mixed and the tube was centrifuged at approximately 250×g for 5 min. The medium was removed, the cell pellet was resuspended in 20 mL of medium, and cells were triturated to disperse cell clumps. For electrophysiology use, 2 mL of the cell suspension was plated in each 35 mm cell culture dish. Recording began 2-3 hours after plating once the cells settled out of the media and adhered to the bottom of the culture dish. […]
Cells were transferred to the recording chamber and superfused with vehicle control solution. […] Onset and steady state inhibition of hKv1.7 current due to the test article was measured using a pulse pattern with fixed amplitudes (depolarization: +10 mV amplitude, 300 ms duration) repeated at 10-second intervals from a holding potential of −80 mV. Current amplitude was measured at the end of the step to +10 mV. Current was monitored until a new steady state was achieved. […] The IC50 for sustained current was calculated for 3,4-DAP phosphate salt.
For 3,4-DAP phosphate salt, the concentration-response relationship was evaluated at seven concentrations (1, 10, 30, 100, 300, 1000 and 3000 μM) and for N-(4-aminopyridin-3-yl) acetamide HCl salt, the concentration-response relationship was evaluated at three concentrations (100, 1000 and 3000 μM).
For orientation: In patch-clamp work, channel activity is measured electrically.

Molecules are shown by their SMILES.

T1 sequence (Q96RP8 whole entry): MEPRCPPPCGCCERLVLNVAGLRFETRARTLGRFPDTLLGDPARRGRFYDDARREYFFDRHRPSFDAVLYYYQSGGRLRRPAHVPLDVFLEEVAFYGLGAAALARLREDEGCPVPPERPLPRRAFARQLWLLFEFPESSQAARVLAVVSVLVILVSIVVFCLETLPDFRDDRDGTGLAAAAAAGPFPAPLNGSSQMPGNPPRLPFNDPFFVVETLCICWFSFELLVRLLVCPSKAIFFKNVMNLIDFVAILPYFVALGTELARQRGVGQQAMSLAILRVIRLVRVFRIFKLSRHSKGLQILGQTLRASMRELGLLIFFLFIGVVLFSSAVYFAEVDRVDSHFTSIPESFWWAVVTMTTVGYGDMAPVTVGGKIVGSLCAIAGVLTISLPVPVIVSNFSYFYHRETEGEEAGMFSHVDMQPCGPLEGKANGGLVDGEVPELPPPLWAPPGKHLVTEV

`CC(=O)Nc1cnccc1N` [3-N-acetyl amifampridine, N-(4-aminopyridin-3-yl)acetamide]: the “activity on K+ channel” value is “inactive”. Further, under “listed as N-acetyl metabolite”, the “activity on K+ channel” value was “not active”.

Values taken from patent publication US11274332B2, “Methods of administering 3,4-diaminopyridine” (SERB SA, priority 2011, dated 2022).
